Patent publication US20130303509A1, “NAMPT INHIBITORS” (AbbVie Inc., priority 2012, published 2013)

test system: PC3 cells; experiment: NAMPT Cell Proliferation Assay; format: cell-based; settings: Homo sapiens, PC-3, 120 h, 5 days incubation, cell viability by Cell Titer Glo
How it was run: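 Five-day CellTiter-Glo viability readout in PC3 cells grown in RPMI/10% heat-inactivated FBS. Compounds added after overnight attachment as a 10-fold dilution series, […]. Percent inhibition fitted to sigmoidal dose-response to derive IC50.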

Row | IC50 [nM] | Compound
1 | 63.4 | O=C(Nc1ccc(S(=O)(=O)C2CCN(C(=O)c3cc(F)cc(F)c3)CC2)cc1)C1CN(c2cccnn2)C1 [Example 593, N-(4-{[1-(3,5-difluorobenzoyl)piperidin-4-yl]sulfonyl}phenyl)-1-(pyridazin-3-yl)azetidine-3-carboxamide]
2 | 12.1 | C=CCC(=O)N1CCC(c2ccc(NC(=O)[C@H]3CCN(c4cccnn4)C3)cc2)CC1 [Example 717, (3S)-N-{4-[1-(but-3-enoyl)piperidin-4-yl]phenyl}-1-(pyridazin-3-yl)pyrrolidine-3-carboxamide]
3 | 20.6 | Cc1ncccc1N1CC(C(=O)Nc2ccc(C3CCN(C(=O)c4cccs4)CC3)cc2)C1 [Example 187, 1-(2-methylpyridin-3-yl)-N-{4-[1-(thiophen-2-ylcarbonyl)piperidin-4-yl]phenyl}azetidine-3-carboxamide]
4 | 2.72 | CCCCC(=O)N1CCC(c2ccc(NC(=O)C3CN(c4cccnn4)C3)cc2)CC1 [Example 318, N-[4-(1-pentanoylpiperidin-4-yl)phenyl]-1-(pyridazin-3-yl)azetidine-3-carboxamide]
5 | 68.1 | Cc1ccsc1C(=O)N1CCC(c2ccc(NC(=O)C3CN(c4cccnc4C)C3)cc2)CC1 [Example 171, 1-(2-methylpyridin-3-yl)-N-(4-{1-[(3-methylthiophen-2-yl)carbonyl]piperidin-4-yl}phenyl)azetidine-3-carboxamide]
6 | 18.6 | CC(C)Cn1cc(-c2ccc(NC(=O)[C@H]3CCN(c4cccnn4)C3)cc2)cn1 [Example 769, (3S)-N-{4-[1-(2-methylpropyl)-1H-pyrazol-4-yl]phenyl}-1-(pyridazin-3-yl)pyrrolidine-3-carboxamide]
7 | 92.3 | O=C(N[C@H]1CCN(c2cccnn2)C1)c1ccc(C2CCN(C(=O)c3ccc(F)cc3F)CC2)s1 [Example 761, 5-[1-(2,4-difluorobenzoyl)piperidin-4-yl]-N-[(3S)-1-(pyridazin-3-yl)pyrrolidin-3-yl]thiophene-2-carboxamide]
8 | 226 | O=C(Nc1ccc(-c2cnn(CCN3CCNCC3)c2)cc1)C1CN(c2cccnn2)C1 [Example 750, N-(4-{1-[2-(piperazin-1-yl)ethyl]-1H-pyrazol-4-yl}phenyl)-1-(pyridazin-3-yl)azetidine-3-carboxamide]
9 | 0.98 | CC1(C(=O)N2CCC(c3ccc(NC(=O)C4CN(c5cccnn5)C4)cc3)CC2)CCCCC1 [Example 437, N-(4-{1-[(1-methylcyclohexyl)carbonyl]piperidin-4-yl}phenyl)-1-(pyridazin-3-yl)azetidine-3-carboxamide]
10 | 61.8 | O=C1CC[C@H](C(=O)N2CCC(c3ccc(NC(=O)C4CN(c5cccnc5)C4)cc3)CC2)N1 [Example 106, N-{4-[1-(5-oxo D-prolyl)piperidin-4-yl]phenyl}-1-(pyridin-3-yl)azetidine-3-carboxamide]
11 | 3.73 | O=C(Nc1ccc(O[C@@H]2CCN(C(=O)Cc3cc(F)cc(F)c3)C2)cc1)C1CN(c2cccnn2)C1 [Example 492, N-[4-({(3R)-1-[(3,5-difluorophenyl)acetyl]pyrrolidin-3-yl}oxy)phenyl]-1-(pyridazin-3-yl)azetidine-3-carboxamide]
12 | 4.01 | O=C(Nc1ccc(C2CCN(C(=O)c3cccc(F)c3)CC2)cc1)[C@H]1CCN(c2cccnn2)C1 [Example 725, (3S)-N-{4-[1-(3-fluorobenzoyl)piperidin-4-yl]phenyl}-1-(pyridazin-3-yl)pyrrolidine-3-carboxamide]
13 | 4.74 | O=C(Nc1ccc(O[C@@H]2CCN(C(=O)C3CC3)C2)cc1)C1CN(c2cccnn2)C1 [Example 502, N-(4-{[(3R)-1-(cyclopropylcarbonyl)pyrrolidin-3-yl]oxy}phenyl)-1-(pyridazin-3-yl)azetidine-3-carboxamide]
14 | 2.14 | O=C(Nc1ccc(C2CCN(C(=O)Cc3ccccc3Cl)CC2)cc1)C1CN(c2cccnn2)C1 [Example 369, N-(4-{1-[(2-chlorophenyl)acetyl]piperidin-4-yl}phenyl)-1-(pyridazin-3-yl)azetidine-3-carboxamide]
15 | 3.35 | CC(=O)N[C@@H](CC(C)C)C(=O)N1CCC(Oc2ccc(NC(=O)C3CN(c4cccnc4)C3)cc2)CC1 [Example 47, N-(4-{[1-(N-acetyl-L-leucyl)piperidin-4-yl]oxy}phenyl)-1-(pyridin-3-yl)azetidine-3-carboxamide]
16 | 0.4 | CCOCCC(=O)N1CCC(c2ccc(NC(=O)C3CN(c4cccnc4)C3)cc2)CC1 [Example 115, N-{4-[1-(3-ethoxypropanoyl)piperidin-4-yl]phenyl}-1-(pyridin-3-yl)azetidine-3-carboxamide]
17 | 6.95 | O=C(Nc1ccc(OC2CCN(C(=O)C(F)(F)c3ccccc3)CC2)cc1)C1CN(c2cccnn2)C1 [Example 215, N-[4-({1-[difluoro(phenyl)acetyl]piperidin-4-yl}oxy)phenyl]-1-(pyridazin-3-yl)azetidine-3-carboxamide]
18 | 9.55 | O=C(Nc1ccc(OC2CCN(CCC3CC3)CC2)cc1)C1CN(c2cccnc2)C1 [Example 82, N-(4-{[1-(2-cyclopropylethyl)piperidin-4-yl]oxy}phenyl)-1-(pyridin-3-yl)azetidine-3-carboxamide]

Row | IC50 [nM] | Compound
19 | 9.33 | O=C(Nc1ccc(C2CCN(C(=O)c3ccc(F)cc3)CC2)cc1)C1CN(c2ccnnc2)C1 [Example 529, N-{4-[1-(4-fluorobenzoyl)piperidin-4-yl]phenyl}-1-(pyridazin-4-yl)azetidine-3-carboxamide]
20 | 1.98 | Cc1cccc(C(=O)N2CCC(c3ccc(NC(=O)C4CN(c5cccnn5)C4)cc3)CC2)c1 [Example 341, N-{4-[1-(3-methylbenzoyl)piperidin-4-yl]phenyl}-1-(pyridazin-3-yl)azetidine-3-carboxamide]
21 | 787 | O=C(N[C@H]1CCN(c2cccnn2)C1)c1ccc(C2CCN(C(=O)[C@H]3CCCO3)CC2)s1 [Example 766, N-[(3S)-1-(pyridazin-3-yl)pyrrolidin-3-yl]-5-{1-[(2R)-tetrahydrofuran-2-ylcarbonyl]piperidin-4-yl}thiophene-2-carboxamide]
22 | 1.25 | CC[C@H](C)C(=O)N1CCC(c2ccc(NC(=O)C3CN(c4cccnc4)C3)cc2)CC1 [Example 22, N-(4-{1-[(2S)-2-methylbutanoyl]piperidin-4-yl}phenyl)-1-(pyridin-3-yl)azetidine-3-carboxamide]
23 | 6.53 | O=C(Nc1ccc(C2CCN(C(=O)c3cccc(O)c3)CC2)cc1)C1CN(c2cccnn2)C1 [Example 343, N-{4-[1-(3-hydroxybenzoyl)piperidin-4-yl]phenyl}-1-(pyridazin-3-yl)azetidine-3-carboxamide]
24 | 58.2 | O=C(Nc1ccc(O[C@@H]2CCN(C(=O)C3CCOC3)C2)cc1)C1CN(c2cccnn2)C1 (stereo partly drawn) [Example 503, 1-(pyridazin-3-yl)-N-(4-{[(3R)-1-(tetrahydrofuran-3-ylcarbonyl)pyrrolidin-3-yl]oxy}phenyl)azetidine-3-carboxamide]
25 | 747 | O=C(NC1CN(c2cccnn2)C1)c1ccc(C2CCN(C(=O)CCC(F)(F)F)CC2)s1 [Example 855, N-[1-(pyridazin-3-yl)azetidin-3-yl]-5-[1-(4,4,4-trifluorobutanoyl)piperidin-4-yl]thiophene-2-carboxamide]
26 | 2.14 | CCCC(C)C(=O)N1CCC(c2ccc(NC(=O)C3CN(c4cccnn4)C3)cc2)CC1 (centres unmarked) [Example 322, N-{4-[1-(2-methylpentanoyl)piperidin-4-yl]phenyl}-1-(pyridazin-3-yl)azetidine-3-carboxamide]
27 | 6620 | Cc1ncccc1N1CC[C@H](C(=O)Nc2ccc(C3CCN(C(=O)c4ccccc4)CC3)cc2)C1 [Example 743, (3S)—N-[4-(1-benzoylpiperidin-4-yl)phenyl]-1-(2-methylpyridin-3-yl)pyrrolidine-3-carboxamide]
28 | 3.97 | CC(C)C(C)C(=O)N1CCC(Oc2ccc(NC(=O)C3CN(c4cccnc4)C3)cc2)CC1 (centres unmarked) [Example 70, N-(4-{[1-(2,3-dimethylbutanoyl)piperidin-4-yl]oxy}phenyl)-1-(pyridin-3-yl)azetidine-3-carboxamide]
29 | 4.6 | COc1ccccc1C(=O)N1CCC(c2ccc(NC(=O)[C@H]3CCN(c4cccnn4)C3)cc2)CC1 [Example 727, (3S)-N-{4-[1-(2-methoxybenzoyl)piperidin-4-yl]phenyl}-1-(pyridazin-3-yl)pyrrolidine-3-carboxamide]
30 | 6.24 | CC[C@H](C)C(=O)N1CC[C@@H](Oc2ccc(NC(=O)C3CN(c4cccnn4)C3)cc2)C1 [Example 486, N-[4-({(3R)-1-[(2S)-2-methylbutanoyl]pyrrolidin-3-yl}oxy)phenyl]-1-(pyridazin-3-yl)azetidine-3-carboxamide]
31 | 80.7 | Cc1cccc(C(=O)N2CCC(S(=O)(=O)c3ccc(NC(=O)C4CN(c5cccnn5)C4)cc3)CC2)c1C [Example 581, N-(4-{[1-(2,3-dimethylbenzoyl)piperidin-4-yl]sulfonyl}phenyl)-1-(pyridazin-3-yl)azetidine-3-carboxamide]
32 | 17.6 | O=C(Nc1ccc(C2CCN(C(=O)Cc3ccc(F)cc3)CC2)cc1)C1CN(c2ccnnc2)C1 [Example 531, N-(4-{1-[(4-fluorophenyl)acetyl]piperidin-4-yl}phenyl)-1-(pyridazin-4-yl)azetidine-3-carboxamide]
33 | 15.5 | O=C(Nc1ccc(OC2CCN(C(=O)c3cccc(C(F)(F)F)c3)CC2)cc1)C1CN(c2cccnn2)C1 [Example 222, 1-(pyridazin-3-yl)-N-[4-({1-[3-(trifluoromethyl)benzoyl]piperidin-4-yl}oxy)phenyl]azetidine-3-carboxamide]
34 | 6170 | CC(C)Cn1cc(-c2cc(C(=O)N[C@@H]3CCN(c4cccnn4)C3)cs2)cn1 [Example 623, 5-[1-(2-methylpropyl)-1H-pyrazol-4-yl]-N-[(3R)-1-(pyridazin-3-yl)pyrrolidin-3-yl]thiophene-3-carboxamide]
35 | 36.9 | O=C(Nc1ccc(O[C@@H]2CCN(C(=O)Cc3ccccc3F)C2)cc1)C1CN(c2ccnnc2)C1 [Example 459, N-[4-({(3R)-1-[(2-fluorophenyl)acetyl]pyrrolidin-3-yl}oxy)phenyl]-1-(pyridazin-4-yl)azetidine-3-carboxamide]
